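In this assay, cells in 96-well plates receive the compound at five concentrations for 48 hours. Endpoints are linearly interpolated between the surrounding concentrations. TGI: total growth inhibition.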
Tests used:
Assay in all cases: NCI tumour cell line growth inhibition, 48 h
786-0 renal = test system: 786-0 renal
A498 renal = test system: A498 renal
ACHN renal = test system: ACHN renal
CAKI-1 renal = test system: CAKI-1 renal
CCRF-CEM leukemia = test system: CCRF-CEM leukemia
DLD-1 colon = test system: DLD-1 colon
DMS 114 small cell lung = test system: DMS 114 small cell lung
DMS 273 small cell lung = test system: DMS 273 small cell lung
HCC-2998 colon = test system: HCC-2998 colon
HCT-116 colon = test system: HCT-116 colon
HCT-15 colon = test system: HCT-15 colon
HL-60(TB) leukemia = test system: HL-60(TB) leukemia
HOP-62 NSCLC = test system: HOP-62 NSCLC
HOP-92 NSCLC = test system: HOP-92 NSCLC
HT29 colon = test system: HT29 colon
IGROV1 ovarian = test system: IGROV1 ovarian
K-562 leukemia = test system: K-562 leukemia
KM12 colon = test system: KM12 colon
LOX IMVI melanoma = test system: LOX IMVI melanoma
LXFL 529 NSCLC = test system: LXFL 529 NSCLC
M14 melanoma = test system: M14 melanoma
M19-MEL melanoma = test system: M19-MEL melanoma
MALME-3M melanoma = test system: MALME-3M melanoma
MOLT-4 leukemia = test system: MOLT-4 leukemia
NCI-H226 lung = test system: NCI-H226 lung
NCI-H23 lung = test system: NCI-H23 lung
NCI-H460 lung = test system: NCI-H460 lung
NCI-H522 lung = test system: NCI-H522 lung
OVCAR-3 ovarian = test system: OVCAR-3 ovarian
OVCAR-4 ovarian = test system: OVCAR-4 ovarian
OVCAR-5 ovarian = test system: OVCAR-5 ovarian
OVCAR-8 ovarian = test system: OVCAR-8 ovarian
RPMI-8226 leukemia = test system: RPMI-8226 leukemia
RXF 393 renal = test system: RXF 393 renal
SF-268 CNS = test system: SF-268 CNS
SF-295 CNS = test system: SF-295 CNS
SF-539 CNS = test system: SF-539 CNS
SK-MEL-2 melanoma = test system: SK-MEL-2 melanoma
SK-MEL-28 melanoma = test system: SK-MEL-28 melanoma
SK-MEL-5 melanoma = test system: SK-MEL-5 melanoma
SK-OV-3 ovarian = test system: SK-OV-3 ovarian
SN12C renal = test system: SN12C renal
SNB-19 CNS = test system: SNB-19 CNS
SNB-75 CNS = test system: SNB-75 CNS
SNB-78 CNS = test system: SNB-78 CNS
SR leukemia = test system: SR leukemia
SW-620 colon = test system: SW-620 colon
TK-10 renal = test system: TK-10 renal
U251 CNS = test system: U251 CNS
UACC-257 melanoma = test system: UACC-257 melanoma
UACC-62 melanoma = test system: UACC-62 melanoma
UO-31 renal = test system: UO-31 renal
XF 498 CNS = test system: XF 498 CNS
A549 NSCLC = test system: A549 NSCLC
COLO 205 colon = test system: COLO 205 colon
EKVX NSCLC = test system: EKVX NSCLC
HOP-18 NSCLC = test system: HOP-18 NSCLC
KM20L2 colon = test system: KM20L2 colon

With `Clc1ccccc1C(n1ncc2ccccc21)n1ncc2ccccc21` the TGI (786-0 renal) was over 100 µM, the TGI (A498 renal) was over 100 µM and the TGI (ACHN renal) was over 100 µM. The TGI (CAKI-1 renal) was over 100 µM, the TGI (CCRF-CEM leukemia) was over 100 µM and the TGI (DLD-1 colon) was over 100 µM. The TGI (DMS 114 small cell lung) was over 100 µM, the TGI (DMS 273 small cell lung) was over 100 µM and the TGI (HCC-2998 colon) was over 100 µM. The TGI (HCT-116 colon) was over 100 µM, the TGI (HCT-15 colon) was over 100 µM and the TGI (HL-60(TB) leukemia) was 50.1 µM. The TGI (HOP-62 NSCLC) was over 100 µM, the TGI (HOP-92 NSCLC) was over 100 µM and the TGI (HT29 colon) was over 100 µM. For the same compound, the TGI (IGROV1 ovarian) was over 10 µM, the TGI (K-562 leukemia) was over 100 µM and the TGI (KM12 colon) was over 100 µM. For the same compound, the TGI (LOX IMVI melanoma) was over 100 µM, the TGI (LXFL 529 NSCLC) was over 100 µM and the TGI (M14 melanoma) was over 100 µM. It also gave a TGI (M19-MEL melanoma) of over 100 µM, a TGI (MALME-3M melanoma) of over 100 µM and a TGI (MOLT-4 leukemia) of over 100 µM. The TGI (NCI-H226 lung) was over 100 µM, the TGI (NCI-H23 lung) was over 100 µM and the TGI (NCI-H460 lung) was over 100 µM. The TGI (NCI-H522 lung) was over 100 µM, the TGI (OVCAR-3 ovarian) was over 100 µM and the TGI (OVCAR-4 ovarian) was over 100 µM. For the same compound, the TGI (OVCAR-5 ovarian) was over 100 µM, the TGI (OVCAR-8 ovarian) was over 100 µM and the TGI (RPMI-8226 leukemia) was 63.3 µM. It also gave a TGI (RXF 393 renal) of over 100 µM, a TGI (SF-268 CNS) of over 100 µM and a TGI (SF-295 CNS) of over 100 µM. It also gave a TGI (SF-539 CNS) of over 100 µM, a TGI (SK-MEL-2 melanoma) of over 100 µM and a TGI (SK-MEL-28 melanoma) of over 100 µM. For the same compound, the TGI (SK-MEL-5 melanoma) was 57.7 µM, the TGI (SK-OV-3 ovarian) was over 10 µM and the TGI (SN12C renal) was over 100 µM. The TGI (SNB-19 CNS) was over 100 µM, the TGI (SNB-75 CNS) was 65.6 µM and the TGI (SNB-78 CNS) was over 100 µM. It also gave a TGI (SR leukemia) of over 100 µM, a TGI (SW-620 colon) of over 100 µM and a TGI (TK-10 renal) of over 100 µM. For the same compound, the TGI (U251 CNS) was over 100 µM, the TGI (UACC-257 melanoma) was over 100 µM and the TGI (UACC-62 melanoma) was over 10 µM. For the same compound, the TGI (UO-31 renal) was 94.4 µM and the TGI (XF 498 CNS) was over 100 µM.
`COc1ccc(-c2cnoc2-c2ccc(OC)c(OC)c2)cc1OC` showed a TGI (786-0 renal) of 6.9 µM, a TGI (A498 renal) of 21.2 µM and a TGI (A549 NSCLC) of over 44.8 µM. For the same compound, the TGI (ACHN renal) was over 74.2 µM, the TGI (CAKI-1 renal) was over 68.1 µM and the TGI (CCRF-CEM leukemia) was 13.4 µM. The TGI (COLO 205 colon) was 3.86 µM, the TGI (DLD-1 colon) was over 63.7 µM and the TGI (DMS 114 small cell lung) was 2.23 µM. For the same compound, the TGI (DMS 273 small cell lung) was 2.02 µM, the TGI (EKVX NSCLC) was 20.7 µM and the TGI (HCT-116 colon) was 12.6 µM. The TGI (HCT-15 colon) was 9.01 µM, the TGI (HL-60(TB) leukemia) was 2.88 µM and the TGI (HOP-18 NSCLC) was over 59.5 µM. The TGI (HOP-62 NSCLC) was 20.5 µM, the TGI (HOP-92 NSCLC) was 21.3 µM and the TGI (HT29 colon) was 11.1 µM. For the same compound, the TGI (IGROV1 ovarian) was 9.53 µM, the TGI (K-562 leukemia) was over 100 µM and the TGI (KM12 colon) was 16.9 µM. The TGI (KM20L2 colon) was over 22.4 µM, the TGI (LOX IMVI melanoma) was 5.22 µM and the TGI (LXFL 529 NSCLC) was over 100 µM. For the same compound, the TGI (M14 melanoma) was 5.39 µM, the TGI (M19-MEL melanoma) was 11.3 µM and the TGI (MOLT-4 leukemia) was 35.9 µM. For the same compound, the TGI (NCI-H226 lung) was over 24 µM, the TGI (NCI-H23 lung) was 3.97 µM and the TGI (NCI-H460 lung) was 19.8 µM. The TGI (NCI-H522 lung) was 2.1 µM, the TGI (OVCAR-3 ovarian) was 7.54 µM and the TGI (OVCAR-4 ovarian) was over 100 µM. It also gave a TGI (OVCAR-5 ovarian) of 36 µM, a TGI (OVCAR-8 ovarian) of 40.9 µM and a TGI (RPMI-8226 leukemia) of 18.5 µM. For the same compound, the TGI (SF-268 CNS) was 15 µM, the TGI (SF-295 CNS) was 4.27 µM and the TGI (SF-539 CNS) was 3.3 µM. It also gave a TGI (SK-MEL-2 melanoma) of 42.7 µM, a TGI (SK-MEL-28 melanoma) of over 21.9 µM and a TGI (SK-MEL-5 melanoma) of 6.71 µM. It also gave a TGI (SK-OV-3 ovarian) of 5.41 µM, a TGI (SN12C renal) of 33.7 µM and a TGI (SNB-19 CNS) of 98.6 µM. It also gave a TGI (SNB-75 CNS) of 6.53 µM, a TGI (SNB-78 CNS) of over 26.8 µM and a TGI (SW-620 colon) of over 37.5 µM. The TGI (TK-10 renal) was 43.2 µM, the TGI (U251 CNS) was 11.4 µM and the TGI (UACC-257 melanoma) was over 100 µM. For the same compound, the TGI (UACC-62 melanoma) was 1.78 µM, the TGI (UO-31 renal) was 41.6 µM and the TGI (XF 498 CNS) was 9.99 µM.
